{"source": "patent US8541598B2", "about": "“Biodegradable solvents for the chemical industry” (Dublin City University, priority 2007, dated 2013)", "key": {"[1]": {"test_system": "Pseudomonas aeruginosa, Escherichia coli, Klebsiella sp., Salmonella sp., Staphylococcus aureus, Enterococcus sp., Bacillus subtilis", "test": "Antimicrobial activity / minimum inhibitory concentrations on seven strains of bacteria", "format": "cell-based", "conditions": "for toxicity / antibacterial activity in words: seven strains of bacteria; for MIC values: seven strains, not split, range tested 0-20000 μg/ml", "procedure": "(§1) Seven strains of bacteria were used in the assessment of the antimicrobial activity of the ILs claimed: 4 gram negative and three gram positive as shown below.\n(§2) A wide concentration range was tested (0-20000 μg/ml). The concentrations screened for antibacterial activity are generally from 2 μg/ml to 1000 μg/ml (Table 6). […] The concentration range screened for the ILs containing ethers was up to 20000 μg/ml. At these high concentrations a lack of antibacterial activity is a significant result."}, "[2]": {"test": "Antimicrobial activity / minimum inhibitory concentrations on seven strains of bacteria", "format": "cell-based", "conditions": "read-out: MIC values", "procedure": "as §1, §2"}, "[3]": {"conditions": "seven strains, not split, range tested 0-20000 μg/ml"}}, "note": "“Also recorded” adds a separate entry of the source. Like-named read-outs stand apart in the source and are kept apart here."}
{"smiles": "CCOCCOC(=O)Cn1cc[n+](C)c1.[Br-]", "note": "[KG8, 3-methyl-1-(2-[2-ethoxy]ethoxycarbonylmethyl)imidazolium bromide]", "values": [{"measurement": "toxicity / antibacterial activity in words", "setting": "[1]", "result": "non-toxic"}, {"measurement": "MIC", "setting": "[2]; [3]", "result": "> 20", "unit": "mg/mL"}]}
{"smiles": "CC(C)OCCOC(=O)Cn1cc[n+](C)c1.[Br-]", "note": "[KG9, 3-methyl-1-(2-[2-propoxy]ethoxycarbonylmethyl)imidazolium bromide]", "values": [{"measurement": "toxicity / antibacterial activity in words", "setting": "[1]", "result": "non-toxic"}, {"measurement": "MIC", "setting": "[2]; [3]", "result": "> 20", "unit": "mg/mL"}]}
{"smiles": "CCC(C)OCCOC(=O)Cn1cc[n+](C)c1.[Br-]", "note": "(centres unmarked) [KG10, 3-methyl-1-(2-[2-butoxy]ethoxycarbonylmethyl)imidazolium bromide]", "values": [{"measurement": "toxicity / antibacterial activity in words", "setting": "[1]", "result": "non-toxic"}, {"measurement": "MIC", "setting": "[2]; [3]", "result": "> 20", "unit": "mg/mL"}]}
{"smiles": "COCCOCCOC(=O)Cn1cc[n+](C)c1.[Br-]", "note": "[KG12, 3-methyl-1-(2-[2-methoxyethoxy]ethoxycarbonylmethyl)imidazolium bromide]", "values": [{"measurement": "toxicity / antibacterial activity in words", "setting": "[1]", "result": "non-toxic"}, {"measurement": "MIC", "setting": "[2]; [3]", "result": "> 20", "unit": "mg/mL"}]}
{"smiles": "CCOCCOCCOC(=O)Cn1cc[n+](C)c1.[Br-]", "note": "[KG13, 3-methyl-1-(2-[2-ethoxyethoxy]ethoxycarbonylmethyl)imidazolium bromide]", "values": [{"measurement": "toxicity / antibacterial activity in words", "setting": "[1]", "result": "non-toxic"}, {"measurement": "MIC", "setting": "[2]", "result": "> 20", "unit": "mg/mL"}]}
{"smiles": "CCCOCCOCCOC(=O)Cn1cc[n+](C)c1.[Br-]", "note": "[KG14, 3-methyl-1-(2-[2-propoxyethoxy]ethoxycarbonylmethyl)imidazolium bromide]", "values": [{"measurement": "toxicity / antibacterial activity in words", "setting": "[1]", "result": "non-toxic"}, {"measurement": "MIC", "setting": "[2]; [3]", "result": "> 20", "unit": "mg/mL"}]}
{"smiles": "CCCCOCCOCCOC(=O)Cn1cc[n+](C)c1.[Br-]", "note": "[KG15, 3-methyl-1-(2-[2-butoxyethoxy]ethoxycarbonylmethyl)imidazolium bromide]", "values": [{"measurement": "toxicity / antibacterial activity in words", "setting": "[1]", "result": "non-toxic"}, {"measurement": "toxicity / antibacterial activity in words", "setting": "[1]; listed as KG 15", "result": "low toxicity"}, {"measurement": "MIC", "setting": "[2]; [3]", "result": "> 20", "unit": "mg/mL"}]}
{"smiles": "CCC(C)OCCOC(=O)Cn1cc[n+](C)c1C.[Br-]", "note": "(centres unmarked) [KG16, 2,3-dimethyl-1-(2-[2-butoxy]ethoxycarbonylmethyl)imidazolium bromide]", "values": [{"measurement": "toxicity / antibacterial activity in words", "setting": "[1]", "result": "non-toxic"}, {"measurement": "MIC", "setting": "[2]", "result": "> 20", "unit": "mg/mL"}]}
{"smiles": "CCCCCOC(=O)Cn1cc[n+](C)c1.[Br-]", "note": "[KG17, 3-Methyl-1-(pentoxycarbonylmethyl) imidazolium bromide]", "values": [{"measurement": "MIC", "setting": "[2]; [3]", "result": "> 20", "unit": "mg/mL"}]}
{"smiles": "COCCOCCOC(=O)Cn1cc[n+](C)c1C.[Br-]", "note": "[KG18, 2,3-dimethyl-1-(2-[2-methoxyethoxy]ethoxycarbonylmethyl)imidazolium bromide]", "values": [{"measurement": "toxicity / antibacterial activity in words", "setting": "[1]", "result": "non-toxic"}, {"measurement": "MIC", "setting": "[2]; [3]", "result": "> 20", "unit": "mg/mL"}]}
{"smiles": "CCCCOC(=O)Cn1cc[n+](C)c1.[Br-]", "note": "[KG19, 3-Methyl-1-(butoxycarbonylmethyl) imidazolium bromide]", "values": [{"measurement": "MIC", "setting": "[2]; [3]", "result": "> 20", "unit": "mg/mL"}]}
{"smiles": "CCCCOC(=O)C[n+]1ccn(C)c1", "note": "[KG34, 3-methyl-1-(butoxycarbonylmethyl)imidazolium octylsulfate]", "values": [{"measurement": "toxicity / antibacterial activity in words", "setting": "[1]", "result": "non-toxic"}, {"measurement": "MIC", "setting": "[2]; [3]", "result": 5, "unit": "mg/mL"}]}
{"smiles": "CCCCCOC(=O)C[n+]1ccn(C)c1", "note": "[KG35, 3-methyl-1-(pentoxycarbonylmethyl)imidazolium octylsulfate]", "values": [{"measurement": "toxicity / antibacterial activity in words", "setting": "[1]", "result": "non-toxic"}, {"measurement": "MIC", "setting": "[2]; [3]", "result": "> 20", "unit": "mg/mL"}]}
{"smiles": "COCCOC(=O)C[n+]1ccn(C)c1", "note": "[KG36, 3-methyl-1-(2-[2-methoxy]ethoxycarbonylmethyl)imidazolium octylsulfate]", "values": [{"measurement": "toxicity / antibacterial activity in words", "setting": "[1]", "result": "non-toxic"}, {"measurement": "MIC", "setting": "[2]; [3]", "result": "> 20", "unit": "mg/mL"}]}
{"smiles": "CCOCCOC(=O)C[n+]1ccn(C)c1", "note": "[KG37, 3-methyl-1-(2-[2-ethoxy]ethoxycarbonylmethyl)imidazolium octylsulfate]", "values": [{"measurement": "toxicity / antibacterial activity in words", "setting": "[1]", "result": "non-toxic"}, {"measurement": "MIC", "setting": "[2]; [3]", "result": "> 20", "unit": "mg/mL"}]}
{"smiles": "CCCOCCOC(=O)C[n+]1ccn(C)c1", "note": "[KG38, 3-methyl-1-(2-[2-propoxy]ethoxycarbonylmethyl)imidazolium octylsulfate]", "values": [{"measurement": "toxicity / antibacterial activity in words", "setting": "[1]", "result": "non-toxic"}, {"measurement": "MIC", "setting": "[2]; [3]", "result": "> 20", "unit": "mg/mL"}]}
{"smiles": "CCCCOCCOC(=O)C[n+]1ccn(C)c1", "note": "[KG39, 3-methyl-1-(2-[2-butoxy]ethoxycarbonylmethyl)imidazolium octylsulfate]", "values": [{"measurement": "toxicity / antibacterial activity in words", "setting": "[1]", "result": "non-toxic"}, {"measurement": "MIC", "setting": "[2]; [3]", "result": "> 20", "unit": "mg/mL"}]}
{"smiles": "COCCOCCOC(=O)C[n+]1ccn(C)c1", "note": "[KG40, 3-methyl-1-(2-[2-methoxyethoxy]ethoxycarbonylmethyl)imidazolium octylsulfate]", "values": [{"measurement": "toxicity / antibacterial activity in words", "setting": "[1]", "result": "non-toxic"}, {"measurement": "MIC", "setting": "[2]; [3]", "result": "> 20", "unit": "mg/mL"}]}
{"smiles": "CCOCCOCCOC(=O)C[n+]1ccn(C)c1", "note": "[KG41, 3-methyl-1-(2-[2-ethoxyethoxy]ethoxycarbonylmethyl)imidazolium octylsulfate]", "values": [{"measurement": "toxicity / antibacterial activity in words", "setting": "[1]", "result": "non-toxic"}, {"measurement": "MIC", "setting": "[2]", "result": 10, "unit": "mg/mL"}]}
{"smiles": "CCCOCCOCCOC(=O)C[n+]1ccn(C)c1", "note": "[KG42, 3-methyl-1-(2-[2-propoxyethoxy]ethoxycarbonylmethyl)imidazolium octylsulfate]", "values": [{"measurement": "toxicity / antibacterial activity in words", "setting": "[1]", "result": "non-toxic"}, {"measurement": "MIC", "setting": "[2]; [3]", "result": "> 20", "unit": "mg/mL"}]}
{"smiles": "CCCCOCCOCCOC(=O)C[n+]1ccn(C)c1", "note": "[KG43, 3-methyl-1-(2-[2-butoxyethoxy]ethoxycarbonylmethyl)imidazolium octylsulfate]", "values": [{"measurement": "toxicity / antibacterial activity in words", "setting": "[1]", "result": "non-toxic"}, {"measurement": "MIC", "setting": "[2]; [3]", "result": 10, "unit": "mg/mL"}]}
{"smiles": "CCCCOCCOC(=O)C[n+]1ccn(C)c1C", "note": "[KG44]", "values": [{"measurement": "toxicity / antibacterial activity in words", "setting": "[1]", "result": "non-toxic"}, {"measurement": "MIC", "setting": "[2]", "result": "> 20", "unit": "mg/mL"}]}
{"smiles": "COCCOCCOC(=O)C[n+]1ccn(C)c1C", "note": "[KG45, 2,3-dimethyl-1-(2-[2-methoxyethoxy]ethoxycarbonylmethyl)imidazolium octylsulfate]", "values": [{"measurement": "toxicity / antibacterial activity in words", "setting": "[1]", "result": "non-toxic"}, {"measurement": "MIC", "setting": "[2]", "result": 10, "unit": "mg/mL"}]}
{"smiles": "COCCOCCOC(=O)C[n+]1ccn(C)c1C.N#C[N-]C#N", "note": "[KG85, 2,3-dimethyl-1-(2-[2-methoxyethoxy]ethoxycarbonylmethyl)imidazolium N(CN)2]", "values": [{"measurement": "toxicity / antibacterial activity in words", "setting": "[1]", "result": "non-toxic"}, {"measurement": "MIC values", "setting": "[1]", "result": ">20000", "unit": "KG85 μg/ml"}]}
{"smiles": "Cn1cc[n+](CC(=O)N2CCCC2)c1", "note": "[KG403, 3-methyl-1-(pyrrolidinylcarbonylmethyl)imidazolium octylsulfate, reference compound]", "values": [{"measurement": "MIC", "setting": "[2]; [3]", "result": "> 20", "unit": "mg/mL"}]}
{"smiles": "Cc1n(C)cc[n+]1CC(=O)N1CCCC1", "note": "[KG404, 2,3-dimethyl-1-(pyrrolidinylcarbonylmethyl)imidazolium octylsulfate, reference compound]", "values": [{"measurement": "MIC", "setting": "[2]; [3]", "result": "> 20", "unit": "mg/mL"}]}
{"smiles": "COCCN(CCOC)C(=O)C[n+]1ccn(C)c1", "note": "[KG405]", "values": [{"measurement": "toxicity / antibacterial activity in words", "setting": "[1]", "result": "low toxicity; also recorded: non-toxic"}, {"measurement": "MIC", "setting": "[2]; [3]", "result": "> 20", "unit": "mg/mL"}]}
{"smiles": "COC(C)N(C(=O)Cn1cc[n+](C)c1)C(C)OC.[Br-]", "note": "(centres unmarked) [KG407, (3-methyl-1-[bis-1-methoxyethyl]carbamylmethyl)imidazolium bromide]", "values": [{"measurement": "toxicity / antibacterial activity in words", "setting": "[1]", "result": "low toxicity; also recorded: non-toxic"}, {"measurement": "MIC values", "setting": "[1]", "result": ">20000", "unit": "KG407 μg/ml"}]}
{"smiles": "C[n+]1ccn(CC(=O)N2CCCC2)c1.[Br-]", "note": "[KG420, 3-methyl-1-(pyrrolidinylcarbonylmethyl)imidazolium bromide, reference compound]", "values": [{"measurement": "MIC values", "setting": "[1]", "result": ">20000", "unit": "KG420 μg/ml"}]}
{"smiles": "Cc1n(CC(=O)N2CCCC2)cc[n+]1C.[Br-]", "note": "[KG421, 2,3-dimethyl-1-(pyrrolidinylcarbonylmethyl)imidazolium bromide, reference compound]", "values": [{"measurement": "MIC values", "setting": "[1]", "result": ">20000", "unit": "KG421 μg/ml"}]}
{"smiles": "COC(C)NC(=O)C[n+]1ccn(C)c1.[Br-]", "note": "(centres unmarked) [KG422, (3-methyl-1-[1-methoxyethyl]carbamylmethyl)imidazolium bromide]", "values": [{"measurement": "toxicity / antibacterial activity in words", "setting": "[1]", "result": "low toxicity; also recorded: non-toxic"}, {"measurement": "MIC values", "setting": "[1]", "result": ">20000", "unit": "KG422 μg/ml"}]}
{"smiles": "CCC(NC(=O)Cn1cc[n+](C)c1)OC.[Br-]", "note": "(centres unmarked) [KG423, (3-methyl-1-[1-methoxypropyl]carbamylmethyl)imidazolium bromide]", "values": [{"measurement": "toxicity / antibacterial activity in words", "setting": "[1]", "result": "low toxicity"}, {"measurement": "MIC values", "setting": "[1]", "result": ">20000", "unit": "KG423 μg/ml"}]}
